Measurements: ChEMBL document CHEMBL1201862, “PubChem BioAssay data set” (2004)
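Test compounds were applied to cells in 96-well plates for 48 hours at 5 doses. Here, GI50 denotes the concentration required for 50% inhibition of growth.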 Activity calls are given as the source filed them. Cut-off read from the data, not from the text of the source: active = GI50 up to about 1.1 µM and inactive = higher. Where a SMILES comes first, the peptide text is derived from it. Bridges are numbered along the chain shown (N, C = ends). [ ]: non-standard residue; d: D form. The star is where a group is joined. ξ: configuration not given here. X28 = O=C(/C=C/C=C/C=C/C=C/C=C/C(=O)*)NC1=C(O)CCC1=O; NMeA = CN[C@@H](C)C(=O)O; ξF = NC(Cc1ccccc1)C(=O)O; ξA = CC(N)C(=O)O

Key:
Test in all cases: inhibition of tumour cell growth, NCI panel, 48 h
HOP-92 = system: HOP-92
K562 = system: K562
UACC-257 = system: UACC-257
U-251 = system: U-251
NCI/ADR-RES = system: NCI/ADR-RES
HCC 2998 = system: HCC 2998
BT-549 = system: BT-549
786-0 = system: 786-0
PC-3 = system: PC-3
CCRF-CEM = system: CCRF-CEM
M14 = system: M14
NCI-H460 = system: NCI-H460
HT-29 = system: HT-29
COLO 205 = system: COLO 205
SF-539 = system: SF-539
HOP-62 = system: HOP-62
ACHN = system: ACHN
UACC-62 = system: UACC-62
A498 = system: A498

Structure (SMILES) | GI50 (HOP-92) | GI50 (K562) | GI50 (UACC-257) | GI50 (U-251) | GI50 (NCI/ADR-RES) | GI50 (HCC 2998) | GI50 (BT-549) | GI50 (786-0) | GI50 (PC-3) | GI50 (CCRF-CEM) | GI50 (M14) | GI50 (NCI-H460) | GI50 (HT-29) | GI50 (COLO 205) | GI50 (SF-539) | GI50 (HOP-62) | GI50 (ACHN) | GI50 (UACC-62) | GI50 (A498)
Cc1ccc(C(=O)N/N=C(\N=N\c2ccccc2C(=O)O)c2ccc(N(C)C)cc2)cc1 | > 100 µM (inactive) | 35.8 µM (inactive) | > 100 µM (inactive) | > 100 µM (inactive) | 71.6 µM (inactive) | 71.4 µM (inactive) | > 100 µM (inactive) | > 100 µM (inactive) | > 100 µM (inactive) | 43.5 µM (inactive) | 64.6 µM (inactive) | 72.6 µM (inactive) | > 100 µM (inactive) | 35.2 µM (inactive) | > 100 µM (inactive) | – | – | – | –
Fc1cc(-c2cc(-c3ccccc3)n[nH]2)c(Cl)cc1Cl | > 100 µM (inactive) | 0.492 µM (active) | > 100 µM (inactive) | 51.5 µM (inactive) | > 100 µM (inactive) | – | > 100 µM (inactive) | > 100 µM (inactive) | > 100 µM (inactive) | 82.2 µM (inactive) | > 100 µM (inactive) | > 100 µM (inactive) | > 100 µM (inactive) | > 100 µM (inactive) | 23 µM (inactive) | 64.4 µM (inactive) | 6.35 µM (inactive) | – | –
CC(C1CCCC1=O)C1CCCC1=O (centres undefined) | – | > 100 µM (inactive) | > 100 µM (inactive) | > 100 µM (inactive) | > 100 µM (inactive) | > 100 µM (inactive) | > 100 µM (inactive) | > 100 µM (inactive) | > 100 µM (inactive) | > 100 µM (inactive) | > 100 µM (inactive) | > 100 µM (inactive) | > 100 µM (inactive) | > 100 µM (inactive) | > 100 µM (inactive) | > 100 µM (inactive) | > 100 µM (inactive) | > 100 µM (inactive) | –
CC1NC(=O)[C@H](C)N(C)C(=O)[C@@H]2CCCN2C(=O)[C@@H](NC(=O)C(Cc2ccccc2)NC(=O)/C=C/C=C/C=C/C=C/C=C/C(=O)NC2=C(O)CCC2=O)COC(=O)[C@@H]2CCCN2C1=O (some centres undefined) (X28-[ξF]SP[NMeA][ξA]P; ester 2-C) | 78.2 µM (inactive) | > 100 µM (inactive) | > 100 µM (inactive) | > 100 µM (inactive) | > 100 µM (inactive) | > 100 µM (inactive) | > 100 µM (inactive) | > 100 µM (inactive) | > 100 µM (inactive) | > 100 µM (inactive) | > 100 µM (inactive) | > 100 µM (inactive) | > 100 µM (inactive) | > 100 µM (inactive) | > 100 µM (inactive) | 48.1 µM (inactive) | > 100 µM (inactive) | > 100 µM (inactive) | –
COc1cc(Br)c(CC2C3=C(CCN2C(=O)C2CCC2)CC(=O)CC3)cc1O (centres undefined) | 20.4 µM (inactive) | 21.6 µM (inactive) | 27.9 µM (inactive) | 42.7 µM (inactive) | 27.5 µM (inactive) | 26.7 µM (inactive) | – | 26.5 µM (inactive) | 30.7 µM (inactive) | 25.5 µM (inactive) | 33.4 µM (inactive) | 45.3 µM (inactive) | 24.9 µM (inactive) | 19.5 µM (inactive) | 46.2 µM (inactive) | 44.2 µM (inactive) | 27.5 µM (inactive) | 15.6 µM (inactive) | –
CCCN(CCC)c1c([N+](=O)[O-])cc(C(N)=O)cc1[N+](=O)[O-] | – | 31.1 µM (inactive) | 49.4 µM (inactive) | 69 µM (inactive) | – | 91 µM (inactive) | – | > 100 µM (inactive) | – | 39.1 µM (inactive) | > 100 µM (inactive) | 68.2 µM (inactive) | > 100 µM (inactive) | 86.9 µM (inactive) | > 100 µM (inactive) | – | > 100 µM (inactive) | – | –
Nc1nc2ccc(Sc3ccc4nc(N)[nH]c(=O)c4c3)cc2c(=O)[nH]1 | > 100 µM (inactive) | > 100 µM (inactive) | > 100 µM (inactive) | 42.5 µM (inactive) | > 100 µM (inactive) | > 100 µM (inactive) | > 100 µM (inactive) | > 100 µM (inactive) | > 100 µM (inactive) | > 100 µM (inactive) | > 100 µM (inactive) | > 100 µM (inactive) | > 100 µM (inactive) | > 100 µM (inactive) | > 100 µM (inactive) | – | > 100 µM (inactive) | > 100 µM (inactive) | –
O=C(Sc1c(-c2ccccc2)c(=O)n(-c2ccccc2)c(=S)n1-c1ccccc1)c1ccc(Cl)cc1 | 55.6 µM (inactive) | 75 µM (inactive) | > 100 µM (inactive) | > 100 µM (inactive) | > 100 µM (inactive) | > 100 µM (inactive) | – | > 100 µM (inactive) | – | 32.5 µM (inactive) | > 100 µM (inactive) | > 100 µM (inactive) | > 100 µM (inactive) | > 100 µM (inactive) | > 100 µM (inactive) | > 100 µM (inactive) | > 100 µM (inactive) | > 100 µM (inactive) | 98.9 µM (inactive)
Cc1ccc(C2NC(=O)c3ccccc3N2)c(C)c1 (centres undefined) | 9.53 µM (inactive) | 0.378 µM (active) | 6 µM (inactive) | 2.59 µM (inactive) | 1.34 µM (inactive) | 4.52 µM (inactive) | – | 3.97 µM (inactive) | 1.66 µM (inactive) | 1.63 µM (inactive) | 2.16 µM (inactive) | 3.07 µM (inactive) | 2.19 µM (inactive) | 2.11 µM (inactive) | 1.61 µM (inactive) | 5.13 µM (inactive) | 6.82 µM (inactive) | 1.26 µM (inactive) | 5.04 µM (inactive)
O=C(NCC#CCO)C(F)(F)F | – | – | > 100 µM (inactive) | > 100 µM (inactive) | – | > 100 µM (inactive) | – | > 100 µM (inactive) | – | – | > 100 µM (inactive) | > 100 µM (inactive) | > 100 µM (inactive) | – | > 100 µM (inactive) | > 100 µM (inactive) | > 100 µM (inactive) | > 100 µM (inactive) | > 100 µM (inactive)
COP(=O)(OC)/C(=C/c1cn(C(C)=O)c2ccccc12)NC(C)=O | > 10 µM (inactive) | 6.75 µM (inactive) | > 100 µM (inactive) | 33.2 µM (inactive) | 28.8 µM (inactive) | > 10 µM (inactive) | – | – | 22.4 µM (inactive) | 16.7 µM (inactive) | 41.8 µM (inactive) | 52.5 µM (inactive) | 41.6 µM (inactive) | 61.4 µM (inactive) | – | 41.3 µM (inactive) | 53 µM (inactive) | – | 16.6 µM (inactive)
O=C1/C(=C/c2cccc(Br)c2)CCc2ccccc21 | 14.7 µM (inactive) | 6.65 µM (inactive) | 14.8 µM (inactive) | 14.6 µM (inactive) | 14 µM (inactive) | – | 9.53 µM (inactive) | 16.3 µM (inactive) | 14.2 µM (inactive) | 3.26 µM (inactive) | 15.8 µM (inactive) | 15.2 µM (inactive) | 10.9 µM (inactive) | 20.8 µM (inactive) | 17.5 µM (inactive) | 16 µM (inactive) | 14.2 µM (inactive) | 10.5 µM (inactive) | –
C=C(C)C1CC(=O)C(C)=C(O)C1 (centres undefined) | – | > 100 µM (inactive) | > 100 µM (inactive) | > 100 µM (inactive) | > 100 µM (inactive) | > 100 µM (inactive) | > 100 µM (inactive) | > 100 µM (inactive) | > 100 µM (inactive) | > 100 µM (inactive) | > 100 µM (inactive) | > 100 µM (inactive) | > 100 µM (inactive) | > 100 µM (inactive) | > 100 µM (inactive) | > 100 µM (inactive) | > 100 µM (inactive) | > 100 µM (inactive) | –
C[C@@H](NC(=O)OC1C=CC2(CC1)C(=O)N(C)c1ccccc12)c1cccc2ccccc12 (some centres undefined) | > 25 µM (inactive) | 15.1 µM (inactive) | 12.2 µM (inactive) | > 25 µM (inactive) | 11.7 µM (inactive) | > 25 µM (inactive) | – | > 25 µM (inactive) | > 25 µM (inactive) | 14.7 µM (inactive) | 14.4 µM (inactive) | 18.2 µM (inactive) | > 25 µM (inactive) | 15.1 µM (inactive) | – | > 25 µM (inactive) | > 25 µM (inactive) | > 25 µM (inactive) | > 25 µM (inactive)
CN(CCNC(=S)c1cn(C)c2c1ccc1ccccc12)CCNC(=S)c1cn(C)c2c1ccc1ccccc12 | 5.64 µM (inactive) | 54.8 µM (inactive) | 46.2 µM (inactive) | 23.7 µM (inactive) | > 100 µM (inactive) | 16.6 µM (inactive) | > 100 µM (inactive) | 53.6 µM (inactive) | 28.6 µM (inactive) | 17.9 µM (inactive) | – | 71.8 µM (inactive) | 27.5 µM (inactive) | > 100 µM (inactive) | 47.6 µM (inactive) | > 100 µM (inactive) | > 100 µM (inactive) | > 100 µM (inactive) | –
CCC(c1ccc(OC)cc1)C1NC(=S)NC1=O (centres undefined) | > 50 µM (inactive) | 17.5 µM (inactive) | > 50 µM (inactive) | > 50 µM (inactive) | > 50 µM (inactive) | > 50 µM (inactive) | – | > 50 µM (inactive) | > 50 µM (inactive) | > 50 µM (inactive) | > 50 µM (inactive) | > 50 µM (inactive) | > 50 µM (inactive) | > 50 µM (inactive) | > 50 µM (inactive) | > 50 µM (inactive) | > 50 µM (inactive) | – | > 50 µM (inactive)
